# Assay results reported in PubChem BioAssay (NCI).
#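 Step 1: Grow cells in 96-well plates. Step 2: Expose to compound for 48 hours at 5 concentrations. Step 3: Interpolate endpoints linearly; if unreached, use highest concentration. TGI: total growth inhibition.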
# Key:
# Test in all cases: DTP human tumour cell line panel, 48 h
# NCI-H23 lung = tested on: NCI-H23 lung
# SK-OV-3 ovarian = tested on: SK-OV-3 ovarian
# SN12C renal = tested on: SN12C renal
# RXF 393 renal = tested on: RXF 393 renal
# SR leukemia = tested on: SR leukemia
# A549 NSCLC = tested on: A549 NSCLC
# UACC-62 melanoma = tested on: UACC-62 melanoma
# DU-145 prostate = tested on: DU-145 prostate
# SF-295 CNS = tested on: SF-295 CNS
# T-47D breast = tested on: T-47D breast
# K-562 leukemia = tested on: K-562 leukemia
# OVCAR-3 ovarian = tested on: OVCAR-3 ovarian
# U251 CNS = tested on: U251 CNS
# HCT-15 colon = tested on: HCT-15 colon
# TK-10 renal = tested on: TK-10 renal
# EKVX NSCLC = tested on: EKVX NSCLC
# SNB-19 CNS = tested on: SNB-19 CNS
# HCT-116 colon = tested on: HCT-116 colon
# HCC-2998 colon = tested on: HCC-2998 colon
# 786-0 renal = tested on: 786-0 renal
# MALME-3M melanoma = tested on: MALME-3M melanoma
# HL-60(TB) leukemia = tested on: HL-60(TB) leukemia
# OVCAR-5 ovarian = tested on: OVCAR-5 ovarian
# OVCAR-8 ovarian = tested on: OVCAR-8 ovarian
# SK-MEL-2 melanoma = tested on: SK-MEL-2 melanoma
# NCI-H460 lung = tested on: NCI-H460 lung
# NCI-H522 lung = tested on: NCI-H522 lung
# HOP-92 NSCLC = tested on: HOP-92 NSCLC
# BT-549 breast = tested on: BT-549 breast
# KM12 colon = tested on: KM12 colon
# UACC-257 melanoma = tested on: UACC-257 melanoma
# PC-3 prostate = tested on: PC-3 prostate
# SK-MEL-28 melanoma = tested on: SK-MEL-28 melanoma
# LOX IMVI melanoma = tested on: LOX IMVI melanoma
# MDA-MB-435 = tested on: MDA-MB-435
# COLO 205 colon = tested on: COLO 205 colon
# SF-268 CNS = tested on: SF-268 CNS
# MDA-N = tested on: MDA-N
# ACHN renal = tested on: ACHN renal
# IGROV1 ovarian = tested on: IGROV1 ovarian
# MDA-MB-231 breast = tested on: MDA-MB-231 breast
# CAKI-1 renal = tested on: CAKI-1 renal
# A498 renal = tested on: A498 renal
# UO-31 renal = tested on: UO-31 renal
# NCI/ADR-RES ovarian = tested on: NCI/ADR-RES ovarian
# SK-MEL-5 melanoma = tested on: SK-MEL-5 melanoma
# HOP-62 NSCLC = tested on: HOP-62 NSCLC
# MCF7 breast = tested on: MCF7 breast
# SNB-75 CNS = tested on: SNB-75 CNS
# MOLT-4 leukemia = tested on: MOLT-4 leukemia
# SF-539 CNS = tested on: SF-539 CNS
# HS 578T breast = tested on: HS 578T breast
# HT29 colon = tested on: HT29 colon
# M14 melanoma = tested on: M14 melanoma
# RPMI-8226 leukemia = tested on: RPMI-8226 leukemia
# CCRF-CEM leukemia = tested on: CCRF-CEM leukemia
# SW-620 colon = tested on: SW-620 colon
# OVCAR-4 ovarian = tested on: OVCAR-4 ovarian
# NCI-H226 lung = tested on: NCI-H226 lung
smiles,measurement,setting,value
CC(=O)OCCOCn1cc(C=O)c2ccccc21,TGI,NCI-H23 lung,> 100 µM
same,TGI,SK-OV-3 ovarian,> 100 µM
same,TGI,SN12C renal,> 100 µM
same,TGI,RXF 393 renal,> 100 µM
same,TGI,SR leukemia,> 100 µM
same,TGI,A549 NSCLC,> 100 µM
same,TGI,UACC-62 melanoma,> 100 µM
same,TGI,DU-145 prostate,> 100 µM
same,TGI,SF-295 CNS,> 100 µM
same,TGI,T-47D breast,> 100 µM
same,TGI,K-562 leukemia,> 100 µM
same,TGI,OVCAR-3 ovarian,> 100 µM
same,TGI,U251 CNS,> 100 µM
same,TGI,HCT-15 colon,> 100 µM
same,TGI,TK-10 renal,> 100 µM
same,TGI,EKVX NSCLC,> 100 µM
same,TGI,SNB-19 CNS,> 100 µM
same,TGI,HCT-116 colon,> 100 µM
same,TGI,HCC-2998 colon,> 100 µM
same,TGI,786-0 renal,> 100 µM
same,TGI,MALME-3M melanoma,> 100 µM
same,TGI,HL-60(TB) leukemia,> 100 µM
same,TGI,OVCAR-5 ovarian,> 100 µM
same,TGI,OVCAR-8 ovarian,> 100 µM
same,TGI,SK-MEL-2 melanoma,> 100 µM
same,TGI,NCI-H460 lung,> 100 µM
same,TGI,NCI-H522 lung,> 100 µM
same,TGI,HOP-92 NSCLC,> 100 µM
same,TGI,BT-549 breast,> 100 µM
same,TGI,KM12 colon,> 100 µM
same,TGI,UACC-257 melanoma,> 100 µM
same,TGI,PC-3 prostate,> 100 µM
same,TGI,SK-MEL-28 melanoma,> 100 µM
same,TGI,LOX IMVI melanoma,> 100 µM
same,TGI,MDA-MB-435,> 100 µM
same,TGI,COLO 205 colon,> 100 µM
same,TGI,SF-268 CNS,> 100 µM
same,TGI,MDA-N,> 100 µM
same,TGI,ACHN renal,> 100 µM
same,TGI,IGROV1 ovarian,> 100 µM
same,TGI,MDA-MB-231 breast,> 100 µM
same,TGI,CAKI-1 renal,> 100 µM
same,TGI,A498 renal,3.89 µM
same,TGI,UO-31 renal,> 100 µM
same,TGI,NCI/ADR-RES ovarian,> 100 µM
same,TGI,SK-MEL-5 melanoma,> 100 µM
same,TGI,HOP-62 NSCLC,> 100 µM
same,TGI,MCF7 breast,> 100 µM
same,TGI,SNB-75 CNS,> 100 µM
same,TGI,MOLT-4 leukemia,> 100 µM
same,TGI,SF-539 CNS,> 100 µM
same,TGI,HS 578T breast,> 100 µM
same,TGI,HT29 colon,> 100 µM
same,TGI,M14 melanoma,> 100 µM
same,TGI,RPMI-8226 leukemia,> 100 µM
same,TGI,CCRF-CEM leukemia,> 100 µM
same,TGI,SW-620 colon,> 100 µM
CCCCCCC(C)c1ccc2c(c1)C(=O)c1nc3ccncc3c(=O)n1-2 (stereo unspecified),TGI,NCI-H23 lung,> 31.4 µM
same,TGI,SK-OV-3 ovarian,> 100 µM
same,TGI,SN12C renal,> 34.9 µM
same,TGI,RXF 393 renal,14.7 µM
same,TGI,SR leukemia,2.57 µM
same,TGI,A549 NSCLC,35.2 µM
same,TGI,UACC-62 melanoma,> 36.9 µM
same,TGI,DU-145 prostate,> 35.1 µM
same,TGI,SF-295 CNS,20.2 µM
same,TGI,T-47D breast,> 40.8 µM
same,TGI,K-562 leukemia,2.91 µM
same,TGI,OVCAR-3 ovarian,9.12 µM
same,TGI,U251 CNS,> 45 µM
same,TGI,HCT-15 colon,> 57.7 µM
same,TGI,TK-10 renal,> 65.8 µM
same,TGI,EKVX NSCLC,> 43.4 µM
same,TGI,SNB-19 CNS,> 33 µM
same,TGI,HCT-116 colon,> 36.8 µM
same,TGI,HCC-2998 colon,> 20.5 µM
same,TGI,786-0 renal,> 45.3 µM
same,TGI,MALME-3M melanoma,0.9 µM
same,TGI,HL-60(TB) leukemia,1.18 µM
same,TGI,OVCAR-5 ovarian,21.7 µM
same,TGI,OVCAR-8 ovarian,> 45.2 µM
same,TGI,SK-MEL-2 melanoma,18.7 µM
same,TGI,NCI-H460 lung,> 34.7 µM
same,TGI,HOP-92 NSCLC,> 100 µM
same,TGI,BT-549 breast,> 33.8 µM
same,TGI,OVCAR-4 ovarian,10.3 µM
same,TGI,KM12 colon,> 30.5 µM
same,TGI,UACC-257 melanoma,> 32.1 µM
same,TGI,PC-3 prostate,16.1 µM
same,TGI,SK-MEL-28 melanoma,> 31.5 µM
same,TGI,MDA-MB-435,1.17 µM
same,TGI,COLO 205 colon,> 39.1 µM
same,TGI,SF-268 CNS,> 100 µM
same,TGI,MDA-N,0.6 µM
same,TGI,ACHN renal,> 29.5 µM
same,TGI,IGROV1 ovarian,> 34.4 µM
same,TGI,MDA-MB-231 breast,> 100 µM
same,TGI,CAKI-1 renal,> 39.6 µM
same,TGI,A498 renal,> 100 µM
same,TGI,UO-31 renal,> 35.7 µM
same,TGI,NCI/ADR-RES ovarian,15.7 µM
same,TGI,SK-MEL-5 melanoma,> 25.4 µM
same,TGI,HOP-62 NSCLC,35.7 µM
same,TGI,NCI-H226 lung,> 32.3 µM
same,TGI,MCF7 breast,32.7 µM
same,TGI,SNB-75 CNS,> 32.2 µM
same,TGI,MOLT-4 leukemia,4.09 µM
same,TGI,SF-539 CNS,20.3 µM
same,TGI,HS 578T breast,25.6 µM
same,TGI,HT29 colon,8.78 µM
same,TGI,M14 melanoma,11.4 µM
same,TGI,RPMI-8226 leukemia,3.97 µM
same,TGI,CCRF-CEM leukemia,5.83 µM
same,TGI,SW-620 colon,> 30.6 µM
N#Cc1c(C#N)c(SSc2c(C#N)c(C#N)c(N)n2-c2ccc(F)cc2)n(-c2ccc(F)cc2)c1N,TGI,NCI-H23 lung,14.3 µM
same,TGI,SK-OV-3 ovarian,31.4 µM
same,TGI,SN12C renal,31.5 µM
same,TGI,RXF 393 renal,8.48 µM
same,TGI,SR leukemia,1.98 µM
same,TGI,A549 NSCLC,36.7 µM
same,TGI,UACC-62 melanoma,31.7 µM
same,TGI,DU-145 prostate,30.6 µM
same,TGI,SF-295 CNS,31.8 µM
same,TGI,T-47D breast,7.96 µM
same,TGI,OVCAR-3 ovarian,6.92 µM
same,TGI,U251 CNS,40.1 µM
same,TGI,HCT-15 colon,4.25 µM
same,TGI,TK-10 renal,8.27 µM
same,TGI,EKVX NSCLC,5.13 µM
same,TGI,SNB-19 CNS,42.6 µM
same,TGI,HCT-116 colon,3.38 µM
same,TGI,HCC-2998 colon,45.3 µM
same,TGI,786-0 renal,3.22 µM
same,TGI,MALME-3M melanoma,3.28 µM
same,TGI,HL-60(TB) leukemia,4.44 µM
same,TGI,OVCAR-5 ovarian,30.9 µM
same,TGI,OVCAR-8 ovarian,32.4 µM
same,TGI,SK-MEL-2 melanoma,44 µM
same,TGI,NCI-H460 lung,41.2 µM
same,TGI,NCI-H522 lung,4.11 µM
same,TGI,HOP-92 NSCLC,7.82 µM
same,TGI,BT-549 breast,7.2 µM
same,TGI,OVCAR-4 ovarian,> 100 µM
same,TGI,KM12 colon,44.3 µM
same,TGI,UACC-257 melanoma,32.5 µM
same,TGI,PC-3 prostate,33.3 µM
same,TGI,SK-MEL-28 melanoma,19.9 µM
same,TGI,LOX IMVI melanoma,59.9 µM
same,TGI,MDA-MB-435,19.2 µM
same,TGI,COLO 205 colon,3.76 µM
same,TGI,SF-268 CNS,48.2 µM
same,TGI,MDA-N,10.8 µM
same,TGI,ACHN renal,8.55 µM
same,TGI,IGROV1 ovarian,37.9 µM
same,TGI,MDA-MB-231 breast,37.6 µM
same,TGI,CAKI-1 renal,21.1 µM
same,TGI,A498 renal,18.9 µM
same,TGI,UO-31 renal,3.87 µM
same,TGI,NCI/ADR-RES ovarian,59.4 µM
same,TGI,SK-MEL-5 melanoma,31.1 µM
same,TGI,HOP-62 NSCLC,33.2 µM
same,TGI,NCI-H226 lung,46 µM
same,TGI,MCF7 breast,> 24.8 µM
same,TGI,SNB-75 CNS,32.6 µM
same,TGI,MOLT-4 leukemia,2.99 µM
same,TGI,SF-539 CNS,35.6 µM
same,TGI,HS 578T breast,> 58.3 µM
same,TGI,HT29 colon,36.5 µM
same,TGI,M14 melanoma,9.07 µM
same,TGI,CCRF-CEM leukemia,4.62 µM
same,TGI,SW-620 colon,5.59 µM
